The target of this test is T1, MST3 kinase domain (Homo sapiens, UniProt Q9Y6E0).
T1 construct: 5 μg/ml MST3 kinase domain; Met-Ser-Leu (vector-encoded residues) (N); Glu-Gly-His6 (C); made in house; host or cells: E. coli
As to the kind of experiment: MST3 kinase assay (PK/LDH-coupled, loss of NADH at 340 nm). Type of test: biochemical. To be noted: purified MST3 kinase domain 5 μg/ml, 10 μM ATP, 400 μM MST3 peptide, 1 mM MnCl2.

This passage reports IC50 results from patent publication US20030225527A1, “Crystals and structures of MST3” (priority 2002, published 2003).

SMILES strings stand for the structures. Structures can show the parent of a compound that is named as a salt.

T1 sequence (Q9Y6E0 36-286 limits assumed): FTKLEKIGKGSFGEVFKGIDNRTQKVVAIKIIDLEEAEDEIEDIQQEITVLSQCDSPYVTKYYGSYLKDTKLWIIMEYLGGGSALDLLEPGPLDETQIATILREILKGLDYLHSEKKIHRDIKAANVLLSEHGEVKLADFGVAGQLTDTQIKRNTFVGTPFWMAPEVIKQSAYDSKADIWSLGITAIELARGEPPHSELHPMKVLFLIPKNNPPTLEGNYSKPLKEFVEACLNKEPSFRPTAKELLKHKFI

The IC50 is the concentration needed to halve the response being measured. A low value points to greater potency. `O=S(=O)(NCCNCC=Cc1ccc(Br)cc1)c1cccc2cnccc12` [H89, N-[2-(p-Bromocinnamylamino)ethyl]-5-isoquinolinesulfonamide.2HCl] showed a 50% inhibitory concentration (IC50) of 30 µM. In turn, `O=S(=O)(c1cccc2c(Cl)cccc12)N1CCCNCC1` [ML-9, 1-(5-Chloronaphthalene-1-sulfonyl)-1H-hexahydro-1,4-diazepine.HCl] had an IC50 of 18 µM.
